Experimental data reported in patent US9546179B2, “Heterocycle amido alkyloxy substituted quinazoline derivative and use thereof” (priority 2011, dated 2017).
Marks after values point to notes of the source that are not given here.

Assays:
[1] = tested on: Human lung cancer cells (A549); test: Anticancer effect in vitro on A549 cells (MTT, GI50); format: cell-based; conditions: A549, 72 hours
Procedure: The inhibitory effect on the cancer cells of the compounds prepared in Example 1-Example 13, Example 20, Example 48, Example 49 and Example 57 was determined in vitro using cancer cells. The results are shown in table 2, and the specific detection methods are as follows:
Human lung cancer cells were (A549, purchased from Shanghai FuMeng Gene Bio-technology Co., Ltd.) cultured in DMEM containing 2 m M/L-glutamine and 10% FBS, and inoculated in 96-well plate, 200 μL/well and 2000 cells per well; the plate was preincubated for 24 hours under the condition of 5% CO2 and 100% relative humidity at 37° C., allowing for cell adherence.
When the cells adhered, the supernatant was removed, and 200 μL drug-containing culture medium was added with different concentration of compounds into each well (in concentration of 20 μg/ml, 12.5 µg/ml, 6.25 μg/ml, […], 1.5625 μg/ml and 0.78125 μg/ml), 3 multiple wells were set up for each drug concentration as well as blank control (cell culture medium without cells), and drug-free control (with no drugs, filled with complete medium in equal amount only), cultured for 72 hours under the condition of 5% CO2 incubator at 37° C. (100% relative humidity).
After the culture ended, the supernatant was carefully removed, and adding 200 μl DMEM culture medium containing 3% FBS with 500 μg/ml MTT into each well, and culturing for 4 hours under the condition of 5% CO2 incubator at 37° C. (100% relative humidity). After the supernatant was discarded, 150 μL DMSO was added in each well for solving. the GI50 value was measured by detecting the absorbance in the 570 nm wavelength.

[2] = tested on: human lungs cancer cell strain A549; test: Tumor inhibitory effect on nude mice bearing A549 tumors; format: in vivo
Procedure: After digesting and detaching the monolayer-cultured human lungs cancer cell strain A549 (purchased from Shanghai FuMeng Gene Bio-technology Co., Ltd.), cells were collected and resuspended in the serum-free culture medium, and the concentration was adjusted to be 2×10^6/0.2 mL. 0.2 mL cell suspension was taken by injector and transplanted under the skin of square scapula behind left armpit of nude mice, 0.2 mL for each mouse. The tumor volume was measured every 2 or 3 days. The nude mice bearing tumors which rapidly grew without any diabrosis were selected after two weeks. Under the condition of asepsis, the tumors were removed, and cut into tumor tissue with the diameter of approximately 2-3 mm, and then inoculate the tissue under the skin of square scapula behind left armpit of nude mice by trocar. After repetition in three generations, the nude mice received administration randomly in groups excluding the ones bearing too large or too small tumors, when the tumor grew to be about 100 mm^3 in volume.
The selected animals were 6-week old BALB/C nude mice. The male mice were 20-22 g in weight and provided by Shanghai Laboratory Animal Center (SIPPR BK) (production permit No. SCXK (Hu) 2008-0016). The experimental period was totally 111 days.
The experiment was randomly divided into 2 groups, the negative control group consisting of 12 mice (solvent administration only) and treatment group consisting of 12 mice (compound C, 100 mg/kg).
Ethanol was used as cosolvent to promote dissolution of compound C, adding 0.5 w/v % carboxymethyl cellulose to form suspension with a 0.5% final concentration of carboxymethyl cellulose and a 10 w/v % final concentration of ethanol, and then, using ultrasound to form uniform suspension. The dosage for intragastric administration was 0.1 ml/10 g, and the negative control group was only subjected to the same solvent. On the first day of experiment, compound C was given 100 mg/kg in the morning and in the evening respectively, and afterwards, 100 mg/kg was given in every morning only. The negative control group was only given 0.1 ml/10 g of 10 v/v % ethanol 0.5 w/v % carboxymethyl cellulose in every morning.
Index: observing state of animals and measuring body weight daily; measuring tumors by calipers every two days. Sacrifice the animal in 24 hours after the last administration and measure the volume and size of tumor. Dissecting the animal and removing the tumor; weighing the tumor and nude mice; and then, drawing the curves of tumor volume and growth, nude mouse weight, tumor inhibition rate and animal death rate.
Tumor diameter measurement is used to observe the antitumor effect of the test substances dynamically. The formula for tumor volume (TV) calculation is: v=0.5×a×b^2(mm^3); wherein, a and b stand for length and width respectively.
The relative tumor volume (RTV) is calculated according to the measurement result; RTV=Vt/V0, wherein V0 is the tumor volume measured at the beginning of administration (i.e. d0) and Vt is the tumor volume at each measurement.
The index to evaluate antitumor activity is relative tumor proliferation rate T/C (%)
In the above formula, TRTV: RTV of treatment group, CRTV: RTV of negative control group.

[3] = molecular target: T1, receptor tyrosine kinase EGFR (Homo sapiens, UniProt P00533); test: Inhibitory effect on receptor tyrosine kinase EGFR (ELISA, Poly(Glu, Tyr)4:1, PY99 antibody); format: biochemical; conditions: ATP 4 μM, 1 hour at 37° C.
T1 construct: purchased Shanghai 3bio Technology Co., Ltd. Lot No. 4018780925
T1 sequence (P00533 25-1210): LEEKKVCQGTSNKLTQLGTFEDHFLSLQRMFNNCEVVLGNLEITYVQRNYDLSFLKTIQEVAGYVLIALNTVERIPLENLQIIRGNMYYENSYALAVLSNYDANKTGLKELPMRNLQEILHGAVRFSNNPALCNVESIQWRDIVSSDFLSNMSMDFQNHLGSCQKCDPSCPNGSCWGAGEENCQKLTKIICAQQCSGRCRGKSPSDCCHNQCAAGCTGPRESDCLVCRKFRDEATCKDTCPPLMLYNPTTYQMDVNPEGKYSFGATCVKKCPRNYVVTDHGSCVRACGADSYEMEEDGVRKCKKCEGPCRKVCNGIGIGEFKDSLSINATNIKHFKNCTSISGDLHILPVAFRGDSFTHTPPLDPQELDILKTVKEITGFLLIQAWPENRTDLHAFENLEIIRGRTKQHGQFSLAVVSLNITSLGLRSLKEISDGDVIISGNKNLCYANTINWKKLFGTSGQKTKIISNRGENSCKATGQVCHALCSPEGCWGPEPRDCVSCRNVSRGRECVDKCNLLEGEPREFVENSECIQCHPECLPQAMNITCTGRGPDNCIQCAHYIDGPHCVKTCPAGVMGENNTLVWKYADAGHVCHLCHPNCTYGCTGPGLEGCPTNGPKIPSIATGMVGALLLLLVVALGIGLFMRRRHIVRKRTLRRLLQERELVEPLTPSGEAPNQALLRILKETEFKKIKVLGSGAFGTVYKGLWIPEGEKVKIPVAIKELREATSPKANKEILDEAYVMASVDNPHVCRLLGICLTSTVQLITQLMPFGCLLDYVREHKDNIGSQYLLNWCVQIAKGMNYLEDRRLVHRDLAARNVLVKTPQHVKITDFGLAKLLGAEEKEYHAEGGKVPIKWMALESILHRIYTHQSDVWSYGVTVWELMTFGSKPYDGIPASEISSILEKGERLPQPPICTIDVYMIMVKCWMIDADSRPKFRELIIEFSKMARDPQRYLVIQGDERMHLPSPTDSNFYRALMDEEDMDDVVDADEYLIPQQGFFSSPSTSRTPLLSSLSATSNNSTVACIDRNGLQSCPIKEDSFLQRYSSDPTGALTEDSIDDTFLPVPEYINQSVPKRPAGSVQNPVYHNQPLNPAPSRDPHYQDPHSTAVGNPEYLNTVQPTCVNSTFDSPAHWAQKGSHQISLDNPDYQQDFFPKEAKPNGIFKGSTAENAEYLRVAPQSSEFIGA
Method in brief: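 Poly(Glu,Tyr)4:1-coated plates; kinase reaction with 4 μM ATP and compound at 1.0000–0.00024 μg/ml, run 1 h at 37 °C. Phosphotyrosine detected with PY99 and HRP anti-mouse IgG, OPD colour read at A492, and inhibition rate calculated.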

[4] = A549 in nude mice, 100 mg/kg intragastric, 21st day after administration

| Structure (SMILES) | GI50 [1] [µM] | IC50 [3] [µM] | further results |
| --- | --- | --- | --- |
| COc1cc2ncnc(Nc3ccc(F)c(Cl)c3)c2cc1OCCCN1CCC2(COC2)C1 [Example 2, 4-(3′-chloro-4′-fluorophenylamino)-6-[3-(2-oxa-6-azaspiro[3.4]octane-6-yl)-propoxy]-7-methoxyquinazoline] | 20.4 | – | body weight of the nude mice compared with the control group ([2]; 100 mg/kg intragastric, FIG. 1): consistent fluctuation; average tumor weight compared with the negative group ([2]; 21st day after administration, 100 mg/kg, P<0.05): less than the negative group; Tumor mass [2, 4]: 0.55 ± 0.43 g; Tumor volume [2, 4]: 515.4 ± 388.0** mm^3; Tumor inhibition rate ([2]; A549 in nude mice, 100 mg/kg intragastric, from tumor weight): 47.62%; T/C % ([2]; A549 in nude mice, 100 mg/kg intragastric, relative tumor proliferation rate): 43.44%; RTV ([2]; A549 in nude mice, 100 mg/kg intragastric, relative tumor volume Vt/V0): 4.57 ± 2.11; tumor volume and size compared with the control group ([2]; two weeks after administration, 100 mg/kg, p<0.05, FIG. 2): significantly less than the control group |
| COc1cc2ncnc(Nc3ccc(F)c(Cl)c3)c2cc1OCCN1CCC2(CC1)COC2 [Example 6] | 20.7 | 0.01 to 0.1 | – |
| COc1cc2ncnc(Nc3ccc(F)c(Cl)c3)c2cc1OCCCN1CCC2(CCOC2)C1 (centres unmarked) [Example 7, 4-(3′-chloro-4′-fluorophenylamino)-6-[3-(2-oxa-7-azaspiro[4.4]nonane-7-yl)-propoxy]-7-methoxyquinazoline] | 15.1 | 0.01 to 0.1 | – |
| COc1cc2ncnc(Nc3ccc(F)c(Cl)c3)c2cc1OCCN1CCC2(CCOC2)C1 (centres unmarked) [Example 8, 4-(3′-chloro-4′-fluorophenylamino)-6-[2-(2-oxa-7-azaspiro[4.4]nonane-7-yl)-oxethyl]-7-methoxyquinazoline] | 23.4 | 0.01 to 0.1 | – |
| COc1cc2ncnc(Nc3ccc(F)c(Cl)c3)c2cc1OCCN1C2CCC1COC2 [Example 13, 4-(3′-chloro-4′-fluorophenylamino)-6-[2-(3-oxa-8-azabicyclo[3.2.1]octane-8-yl)-oxethyl]-7-methoxyquinazoline] | 28.8 | 0.01 to 0.1 | – |
| C#Cc1cccc(Nc2ncnc3cc(OC)c(OCCCN4CC5(C4)CN(C)C(=O)O5)cc23)c1 [Example 49] | 21 | 0.0001 to 0.01 | – |
| COc1cc2ncnc(Nc3ccc(F)c(Cl)c3)c2cc1OCCN1CC2(CNC(=O)C2)C1 [Example 57, 4-(3′-chloro-4′-fluorophenylamino)-6-[2-(2,6-diazaspiro[3.4]octane-7-ketone-2-yl)-oxethyl]-7-m ethoxyquinazoline] | 23.8 | > 1 | – |

More lines, in order of falling GI50 [1], values ahead:

| GI50 [1] [µM] | IC50 [3] [µM] | Structure (SMILES) | further results |
| --- | --- | --- | --- |
| 35.2 | 0.01 to 0.1 | COc1cc2ncnc(Nc3ccc(F)c(Cl)c3)c2cc1OCCN1CCC2(CCOCC2)C1 [Example 10, 4-(3′-chloro-4′-fluorophenylamino)-6-[2-(8-oxa-2-azaspiro[4.5]decane-2-yl)-oxethyl]-7-methoxyquinazoline] | – |
| 26.6 | 0.1 to 1 | COc1cc2ncnc(Nc3ccc(F)c(Cl)c3)c2cc1OCCN1CC2CCC(C1)O2 [Example 11, 4-(3′-chloro-4′-fluorophenylamino)-6-[2-(8-oxa-3-azabicyclo[3.2.1]octane-3-yl)-oxethyl]-7-methoxyquinazoline] | – |
| 24.3 | 0.01 to 0.1 | COc1cc2ncnc(Nc3ccc(F)c(Cl)c3)c2cc1OCCCN1CCC2(CCOCC2)C1 [Example 9, 4-(3′-chloro-4′-fluorophenylamino)-6-[3-(8-oxa-2-azaspiro[4.5]decane-2-yl)-propoxy]-7-methoxyquinazoline] | – |
| 17.8 | 0.0001 to 0.01 | C#Cc1cccc(Nc2ncnc3cc(OC)c(OCCCN4CC5(CNC(=O)O5)C4)cc23)c1 [Example 48] | – |
